Where two headings read alike, the source gives them in different places.
Columns and labels:
human NPY Y5 receptor = target: T1, human NPY Y5 receptor (Homo sapiens, UniProt Q15761); test: NPY binding inhibition test ([125I]peptideYY binding to membranes of NPY Y5 receptor expressing cells); conditions: 25° C., 2 hours, membrane of NPY Y5 receptor expressing cells, read-out: IC50 against specific peptideYY binding
T1 construct: expressed in transfected cells; host or cells: COS-7, CHO and LM(tk-) cells (membrane preparation)
T1 sequence (Q15761 1-445): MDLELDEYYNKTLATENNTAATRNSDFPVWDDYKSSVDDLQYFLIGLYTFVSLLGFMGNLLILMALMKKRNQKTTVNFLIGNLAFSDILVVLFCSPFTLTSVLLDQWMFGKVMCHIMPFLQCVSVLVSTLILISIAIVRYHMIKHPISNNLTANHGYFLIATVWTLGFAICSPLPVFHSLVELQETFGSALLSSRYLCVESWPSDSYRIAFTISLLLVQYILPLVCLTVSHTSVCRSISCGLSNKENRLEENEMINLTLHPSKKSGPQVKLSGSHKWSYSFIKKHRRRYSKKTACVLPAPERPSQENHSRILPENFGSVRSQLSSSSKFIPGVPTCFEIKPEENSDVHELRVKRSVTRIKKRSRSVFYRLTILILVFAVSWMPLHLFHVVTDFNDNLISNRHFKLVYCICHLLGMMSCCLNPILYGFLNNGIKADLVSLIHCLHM
Source text: cDNA sequence encoding human NPY Y5 receptor (c.f. International patent publication number WO96/16542) was cloned into expression vectors pcDNA3, pRc/RSV (made by Invitrogen Inc.) and pCI-neo (made by Promega Inc.). The expression vectors thus obtained were transfected to host cells COS-7, CHO and LM(tk−) (American Type Culture Collection) by cationic lipid method (Proceedings of the National Academy of Sciences of the United States of America, vol. 84: p. 7413(1987)) to give NPY Y5 receptor expression cells.
A membrane sample prepared from the cells which expressed NPY Y5 receptor was incubated together with a test compound and [^125I]peptideYY (made by NEN) (20,000 cpm) in an assay buffer (25 mM Tris buffer, pH7.4, containing 10 mM magnesium chloride, 1 mM phenylmethylsulfonyl fluoride, 0.1% bacitracin and 0.5% bovine serum albumin) at 25° C. for 2 hours, then filtered through a glass filter GF/C and washed with 5 mM Tris buffer (pH7.4) containing 0.3% BSA. The radio activity of the cake on the glass filter was measured. Non-specific binding was measured in the presence of 1 μM peptide YY, and a 50% Inhibitory Concentration (IC50) of the test compound against specific peptideYY binding was determined (Endocrinology, vol. 131: p. 2090(1992)).

[1] = Brain/cerebrospinal fluid transport test; format: in vivo; conditions: male SD rats, 2 hours after oral administration (10 mg/kg); for concentration at 2 h: rat
Experimental: A test compound was orally or intravenously administered to male SD rats (7–10 weeks old, 200–400 g), and whole blood was collected from the abdominal aorta using a heparin-treated syringe under the ether anesthesia at designated time. Then, the head skin was cut out, and a dental 30 G needle was inserted between the cervical vertebrae, and it was further inserted into the cavum subarachnoideale. After 50 to 100 μL cerebrospinal fluid had been collected by a 1 ml-syringe through a tube connected to dental 30 G needle, the brain was extracted. The blood sample was centrifuged (4° C., 6,000 r.p.m., 10 minutes) to obtain the plasma. 3-fold amount of ethanol containing an internal standard was added, and stirred. The brain sample was homogenized after addition of 2 ml water, an aliquot of the homogenate was taken and 3-fold amount of ethanol containing an internal standard was added, and stirred. The cerebrospinal fluid was stirred after adding 3-fold amount of ethanol containing an internal standard. These samples were allowed to stand at −20° C. for 20 minutes, and then centrifuged (4° C., 12,000 g, 10 minutes). The supernatant was analyzed by LC/MS/MS, and the concentration of the test compound in the plasma, brain, and cerebrospinal fluid were measured by the method using a relative calibration curve.

[2] = Pharmacokinetics test (plasma concentration by LC/MS/MS); format: in vivo; conditions: rat, male SD rats, overnight fasting, oral or intravenous administration
Experimental: A test compound was orally or intravenously administered to male SD rats (7–10 weeks old, 200–400 g) under the overnight fasting condition. About 100 μL of blood was collected from the tail vein by heparinized capillary at designated time. The blood was centrifuged (4° C., 6,000 r.p.m., 10 minutes) to obtain the plasma. 3-fold amount of ethanol containing an internal standard was added to plasma. The mixture was stirred, allowed to stand at −20° C. for 20 minutes, and then centrifuged (4° C., 10,000 r.p.m., 10 minutes). The supernatant was analyzed by LC/MS/MS, and the concentration of the test compound in the plasma was measured using a relative calibration curve.

SMILES | IC50 (human NPY Y5 receptor) [nM] | also measured
C[C@@H]1NC(c2ccc(=O)n(C(F)F)c2)=NC1(c1ccc(F)cc1)c1ccc(C(F)(F)F)nc1 (single isomer, unassigned) [Example 1-7] | 2.7 | concentration in the brain [1]: 2.48 nmol/g; concentration at 2 h ([1]; cerebrospinal fluid, read-out: concentration in the cerebrospinal fluid): 150 nM; concentration at 2 h ([1]; plasma, read-out: concentration in the plasma): 3170 nM; bioavailability [2]: 94%; half-life [2]: 8.5 h
C[C@@H]1NC(c2ccc(=O)n(C(F)F)c2)=NC1(c1ccc(Cl)cc1)c1ccnc(F)c1 (single isomer, unassigned) [Example 1-21] | 2.7 | –
CCn1cc(C2=NC(c3ccc(Cl)cc3)(c3ccnc(F)c3)[C@H](C)N2)ccc1=O (single isomer, unassigned) [Example 1-23] | 2.8 | –
C[C@@H]1NC(c2ccc(=O)n(C(F)F)c2)=NC1(c1ccc(F)cc1)c1ccc(C(F)F)nc1 (single isomer, unassigned) [Example 1-42] | 2.8 | –
CCc1cc(C2=N[C@@](c3ccc(F)cc3)(c3ccc(F)nc3)[C@H](C)N2)cn(C)c1=O [Example 1-39, 3-ethyl-5-[(4S,5S)-4-(4-fluorophenyl)-4-(6-fluoro-3-pyridyl)-5-methyl-2-imidazolin-2-yl]-1-methyl-2-pyridone] | 2.6 | –
COn1cc(C2=N[C@](c3ccc(F)cc3)(c3ccc(C(F)(F)F)nc3)[C@H](C)N2)ccc1=O [Example 1-53, 5-[(4R,5S)-4-(4-fluorophenyl)-5-methyl-4-(6-trifluoromethyl-3-pyridyl)-2-imidazolin-2-yl]-1-methoxy-2-pyridone] | 2.5 | –
CCc1cc(C2=N[C@@](c3ccc(F)cc3)(c3ccc(F)nc3)[C@H](C)N2)cn(C(F)F)c1=O [Example 1-70, 1-difluoromethyl-3-ethyl-5-[(4S,5S)-4-(4-fluorophenyl)-4-(6-fluoro-3-pyridyl)-5-methyl-2-imidazolin-2-yl]-2-pyridone] | 2.9 | –

Continued, in another order:

IC50 (human NPY Y5 receptor) [nM] | SMILES | also measured
2.1 | CCn1cc(C2=NC(c3ccc(F)cc3)(c3ccc(C(F)(F)F)nc3)[C@H](C)N2)ccc1=O (single isomer, unassigned) [Example 1-8] | –
1.5 | CCCn1cc(C2=NC(c3ccc(F)cc3)(c3ccc(C(F)(F)F)nc3)[C@H](C)N2)ccc1=O (single isomer, unassigned) [Example 1-9] | –
2.3 | CCn1cc(C2=NC(c3ccc(F)cc3)(c3ccc(C(F)(F)F)nc3)[C@H](C)N2)cc(Cl)c1=O (single isomer, unassigned) [Example 1-11] | –
2.9 | CCn1cc(C2=NC(c3ccc(F)cc3)(c3ccc(C(F)(F)F)nc3)[C@H](C)N2)cc(F)c1=O (single isomer, unassigned) [Example 1-29] | –
2.8 | CCn1cc(C2=NC(c3ccc(F)cc3)(c3ccc(C(F)F)nc3)[C@H](C)N2)cc(F)c1=O (single isomer, unassigned) [Example 1-45] | –
2.9 | CCn1cc(C2=N[C@@](c3ccc(F)cc3)(c3ccc(F)nc3)[C@H](C)N2)cc(F)c1=O [Example 1-25, 1-ethyl-3-fluoro-5-[(4S,5S)-4-(4-fluorophenyl)-4-(6-fluoro-3-pyridyl)-5-methyl-2-imidazolin-2-yl]-2-pyridone] | –

— patent US7138525B2, “N-substituted-2-oxodihydropyridine derivatives” (Banyu Pharmaceutical Co., Ltd., priority 2002, dated 2006)
